Patent EP2459571B1, “NITROIMIDAZOOXAZINES AND THEIR USES IN ANTI-TUBERCULAR THERAPY” (priority 2009, dated 2011)
Values after ≈ are worked out from the molar mass of the structure shown.

Tests used:
[1] = test system: replicating Mycobacterium tuberculosis; assay: MIC, microplate Alamar blue assay (MABA), 8 day; format: cell-based; conditions: 192 h, read-out: MIC MABA (aerobic)
[2] = test system: M. tuberculosis bacteria in the non-replicating state; assay: microbe, parasite or virus in culture; format: cell-based; conditions: Mycobacterium tuberculosis, 264 h, low oxygen, 11 day, read-out: MIC LORA (anaerobic)
in vivo = conditions: mouse, po, 40 mg/kg
M. tuberculosis Erdman [3] = test system: M. tuberculosis Erdman; parameters: species or system BALB/c mice; conditions: mouse, po, 100 mg/kg
M. tuberculosis Erdman [4] = format: in vivo, BALB/c mice; conditions: for In vivo efficacy vs PA-824, Chronic: mouse, po, 100 mg/kg
[5] = CD-1 mice, oral, 40 mg/kg; for t½ (h) plasma: suspension in 0.5% carboxymethylcellulose/0.08% Tween 80

| SMILES | MIC [1] [µM] | MIC [2] [µM] | AUC (in vivo) [µg·h/mL] | In vivo efficacy vs PA-824, Acute (M. tuberculosis Erdman [3]) | In vivo efficacy vs PA-824, Chronic (M. tuberculosis Erdman [4]) | Cmax plasma [5] [ng/mL] | t½ (h) plasma [5] [h] | log reduction in CFU (M. tuberculosis Erdman [4]; chronic assay, lungs, vs vehicle, oral 100 mg/kg) | Kp (in vivo) |
| --- | --- | --- | --- | --- | --- | --- | --- | --- | --- |
| O=[N+]([O-])c1cn2c(n1)OC[C@@H](OCc1cnn(-c3ccc(OC(F)(F)F)cc3)c1)C2 [compound 27] | 0.15 (≈ 0.0638 µg/mL) | 1.8 (≈ 0.766 µg/mL) |  |  |  |  |  |  |  |
| O=[N+]([O-])c1cn2c(n1)OC[C@@H](OCc1ccc(-c3ccc(OC(F)(F)F)cc3)cc1)C2 [compound 3, (6S)-2-Nitro-6-{[4'-(trifluoromethoxy)[1,1'-biphenyl]-4-yl]methoxy}-6,7-dihydro-5H-imidazo[2,1-b][1,3]oxazine] | 0.035 (≈ 0.0152 µg/mL) | 1.3 (≈ 0.566 µg/mL) | 218 | >205 | 12 |  |  |  |  |
| O=[N+]([O-])c1cn2c(n1)OC[C@@H](OCc1ccc(C#Cc3ccc(OC(F)(F)F)cc3)cc1)C2 [compound 32, (6S)-2-Nitro-6-[(4-{[4-(trifluoromethoxy)phenyl]ethynyl}benzyl)oxy]-6,7-dihydro-5H-imidazo[2,1-b][1,3]oxazine] | 0.017 (≈ 0.00781 µg/mL) | > 128 |  |  |  |  |  |  |  |
| O=[N+]([O-])c1cn2c(n1)OC[C@@H](OC/C=C/c1ccc(-c3ccc(OC(F)(F)F)cc3)cc1)C2 [compound 19, (6S)-2-Nitro-6-({(2E)-3-[4'-(trifluoromethoxy)[1,1'-biphenyl]-4-yl]-2-propenyl}oxy)-6,7-dihydro-5H-imidazo[2,1-b][1,3]oxazine] | 0.063 (≈ 0.0291 µg/mL) | > 64 |  |  |  |  |  |  |  |
| O=[N+]([O-])c1cn2c(n1)OC[C@@H](OCc1ccc(-c3ccc(C(F)(F)F)cn3)cc1F)C2 [compound 14, (6S)-6-({2-Fluoro-4-[5-(trifluoromethyl)-2-pyridinyl]benzyl}oxy)-2-nitro-6,7-dihydro-5H-imidazo[2,1-b][1,3]oxazine] | 0.055 (≈ 0.0241 µg/mL) | 2.3 (≈ 1.01 µg/mL) | 148 | 52 |  |  |  |  |  |
| O=C(O[C@@H]1COc2nc([N+](=O)[O-])cn2C1)N1CCN(c2ccc(OC(F)(F)F)cc2)CC1 [compound 20] | 0.13 (≈ 0.0595 µg/mL) | 1.1 (≈ 0.503 µg/mL) | 169 | 5.2 |  | 2500 | 10.5 |  |  |
| O=[N+]([O-])c1cn2c(n1)OC[C@@H](OCc1ccc(OC(F)(F)F)cc1)C2 [PA-824, reference compound] | 0.5 (≈ 0.18 µg/mL) | 2.6 (≈ 0.934 µg/mL) | 296 | 1.0 | 1.0 |  |  | ~ 2 log |  |
| O=[N+]([O-])c1cn2c(n1)OC[C@@H](OCc1ccc(-c3ccc(F)cn3)cc1)C2 [compound 26, (6S)-6-{[4-(5-Fluoro-2-pyridinyl)benzyl]oxy}-2-nitro-6,7-dihydro-5H-imidazo[2,1-b][1,3]oxazine] | 0.035 (≈ 0.013 µg/mL) | 1.3 (≈ 0.481 µg/mL) |  |  |  |  |  |  |  |
| O=[N+]([O-])c1cn2c(n1)OC[C@@H](OCc1ncc(-c3ccc(OC(F)(F)F)cc3)cn1)C2 [compound 29] | 0.11 (≈ 0.0481 µg/mL) | 1.9 (≈ 0.831 µg/mL) |  |  |  |  |  |  |  |
| O=[N+]([O-])c1cn2c(n1)OC[C@@H](OCc1ccc(C#Cc3ccc(OC(F)(F)F)cc3)nc1)C2 [compound 33, (6S)-2-Nitro-6-[(6-{[4-(trifluoromethoxy)phenyl]ethynyl}-3-pyridinyl)methoxy]-6,7-dihydro-5H-imidazo[2,1-b][1,3]oxazine] | 0.02 (≈ 0.00921 µg/mL) | 0.94 (≈ 0.433 µg/mL) |  |  |  |  |  |  |  |
| O=[N+]([O-])c1cn2c(n1)OC[C@@H](OCc1ccc(C#Cc3ccc(OC(F)(F)F)cc3)cn1)C2 [compound 18, (6S)-2-Nitro-6-[(5-{[4-(trifluoromethoxy)phenyl]ethynyl}-2-pyridinyl)methoxy]-6,7-dihydro-5H-imidazo[2,1-b][1,3]oxazine] | 0.02 (≈ 0.00921 µg/mL) | 1.4 (≈ 0.645 µg/mL) | 235 | >933 |  |  |  |  |  |
| O=[N+]([O-])c1cn2c(n1)OC[C@@H](OCc1ccc(-c3ccc(OC(F)(F)F)c(F)c3)cn1)C2 [compound 22, (6S)-6-({5-[3-Fluoro-4-(trifluoromethoxy)phenyl]-2-pyridinyl}methoxy)-2-nitro-6,7-dihydro-5H-imidazo[2,1-b][1,3]oxazine] | 0.05 (≈ 0.0227 µg/mL) | 1.3 (≈ 0.591 µg/mL) | 155 | 233 |  | 7600 | 8.4 |  |  |
| O=[N+]([O-])c1cn2c(n1)OC[C@@H](OCc1ccc(-c3ccc(OC(F)(F)F)c(F)c3)nc1)C2 [compound 21, (6S)-6-({6-[3-Fluoro-4-(trifluoromethoxy)phenyl]-3-pyridinyl}methoxy)-2-nitro-6,7-dihydro-5H-imidazo[2,1-b][1,3]oxazine] | 0.025 (≈ 0.0114 µg/mL) | 0.93 (≈ 0.423 µg/mL) | 251 | >840 |  | 7000 |  |  |  |
| O=[N+]([O-])c1cn2c(n1)OC[C@@H](OCc1cnc(-c3ccc(OC(F)(F)F)cc3)nc1)C2 [compound 16] | 0.027 (≈ 0.0118 µg/mL) | 1.8 (≈ 0.787 µg/mL) | 131 | >1120 |  |  |  |  |  |
| O=[N+]([O-])c1cn2c(n1)OC[C@@H](OCc1ccc(-c3ccc(C(F)(F)F)nc3)cc1)C2 [compound 9, (6S)-2-Nitro-6-({4-[6-(trifluoromethyl)-3-pyridinyl]benzyl}oxy)-6,7-dihydro-5H-imidazo[2,1-b][1,3]oxazine] | 0.03 (≈ 0.0126 µg/mL) | 2.1 (≈ 0.883 µg/mL) | 414 | 15 | 4.6 |  |  |  |  |
| Cn1nc(-c2ccc(OC(F)(F)F)cc2)cc1CO[C@@H]1COc2nc([N+](=O)[O-])cn2C1 [compound 11] | 0.06 (≈ 0.0264 µg/mL) | 0.58 (≈ 0.255 µg/mL) | 92.4 | 12 | 0.9 |  |  |  |  |
| O=[N+]([O-])c1cn2c(n1)OC[C@@H](OCc1ccc(-c3ccc(OC(F)(F)F)c(Cl)c3)nc1)C2 [compound 28, (6S)-6-({6-[3-Chloro-4-(trifluoromethoxy)phenyl]-3-pyridinyl}methoxy)-2-nitro-6,7-dihydro-5H-imidazo[2,1-b][1,3]oxazine] | 0.017 (≈ 0.008 µg/mL) | 1 (≈ 0.471 µg/mL) | 284 | >933 |  |  |  |  |  |
| O=[N+]([O-])c1cn2c(n1)OC[C@@H](OCc1ccc(-c3ccc(OC(F)(F)F)c(F)c3)cc1)C2 [compound 2, (6S)-6-{[3'-Fluoro-4'-(trifluoromethoxy)[1,1'-biphenyl]-4-yl]methoxy}-2-nitro-6,7-dihydro-5H-imidazo[2,1-b][1,3]oxazine] | 0.03 (≈ 0.0136 µg/mL) | 0.34 (≈ 0.154 µg/mL) | > 513 | 419 |  |  |  |  | > 1 |
| O=[N+]([O-])c1cn2c(n1)OC[C@@H](OCc1ccc(-c3ccc(C(F)(F)F)nc3)cc1F)C2 [compound 23, (6S)-6-({2-Fluoro-4-[6-(trifluoromethyl)-3-pyridinyl]benzyl}oxy)-2-nitro-6,7-dihydro-5H-imidazo[2,1-b][1,3]oxazine] | 0.13 (≈ 0.057 µg/mL) | 0.68 (≈ 0.298 µg/mL) | 55.4 | 8.8 |  |  |  |  |  |
| O=[N+]([O-])c1cn2c(n1)OC[C@@H](OCc1ccc(-c3ccc(OC(F)(F)F)cc3)nn1)C2 [compound 24] | 0.075 (≈ 0.0328 µg/mL) | 1.7 (≈ 0.743 µg/mL) | 93.9 | 11 |  |  | 2.9 |  |  |
| O=[N+]([O-])c1cn2c(n1)OC[C@@H](OCc1cnc(-c3ccc(OC(F)(F)F)cc3)cn1)C2 [compound 4, (6S)-2-nitro-6-({5-[4-(trifluoromethoxy)phenyl]-2-pyrazinyl}methoxy)-6,7-dihydro-5H-imidazo[2,1-b][1,3]oxazine] | 0.023 (≈ 0.0101 µg/mL) | 1 (≈ 0.437 µg/mL) | > 324 | 167 |  | 9600 | 7.2 |  |  |
| O=[N+]([O-])c1cn2c(n1)OC[C@@H](Oc1ccc(-c3ccc(OC(F)(F)F)cc3)cc1)C2 [compound 13, (6S)-2-Nitro-6-{[4'-(trifluoromethoxy)[1,1'-biphenyl]-4-yl]oxy}-6,7-dihydro-5H-imidazo[2,1-b][1,3]oxazine] | 0.05 (≈ 0.0211 µg/mL) | 1.3 (≈ 0.548 µg/mL) | 347 | 8.1 |  | 1860 |  |  |  |
| O=[N+]([O-])c1cn2c(n1)OC[C@@H](OCc1ccc(-c3ccc(OC(F)(F)F)cc3)c(F)c1)C2 [compound 15, (6S)-6-{[2-Fluoro-4'-(trifluoromethoxy)[1,1'-biphenyl]-4-yl]methoxy}-2-nitro-6,7-dihydro-5H-imidazo[2,1-b][1,3]oxazine] | 0.055 (≈ 0.0249 µg/mL) | 0.51 (≈ 0.231 µg/mL) |  | >933 |  |  |  |  |  |
